In patent publication US20250195521A1 (Revolution Medicines, Inc., priority 2020, published 2025):
Several values for one entry are separate records, joined by “and”; a condition that tells them apart may be missing. Equal entries are not always repeated. Where two headings read alike, the source gives them in different places.

Key:
[1] = system: Capan-1 cells (K-Ras G12V); assay: CellTiter-Glo cell viability, Capan-1; assay type: cell-based, human; conditions: K-Ras G12V, 5-day treatment, read-out: Capan-1 Cell Viability IC50
How it was run: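 Luminescence read on day 5 after ~30 min room-temperature equilibration; compounds added directly to plated cells. Values = (sample signal/avg DMSO)*100, four-parameter logistic fit.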

[2] = system: K-Ras G12C (NCI-H358 cells); assay: Potency assay: pERK in NCI-H358 cells; assay type: cell-based, human; conditions: NCI-H358 cells, 4 hours, read-out: pERK EC50 (H358 KRAS G12C)
How it was run: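 Cells plated the day before were exposed for 4 h at 37° C, 5% CO2 to a 10-point, 3-fold DMSO dilution series (10 mM top stock), in duplicate. Phospho-ERK was read by AlphaLISA SureFire Ultra or by In-Cell Western with DRAQ5 DNA stain, and IC50 came from a 4-parameter sigmoidal fit.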

[3] = system: NCI-H358 cells (K-Ras G12C); assay: CellTiter-Glo cell viability, NCI-H358; assay type: cell-based, human; conditions: read-out: H358 Cell Viability IC50
Experimental: Note—The following protocol describes a procedure for monitoring cell viability of K-Ras mutant cancer cell lines in response to a compound of the invention. Other RAS isoforms may be employed, though the number of cells to be seeded will vary based on cell line used.
Test compounds (132.5 nl) were directly dispensed into the assay plates containing cells. […] On day 5, assay plates and their contents were equilibrated to room temperature for approximately 30 minutes. […] Luminescence was measured using the PerkinElmer Enspire. Data were normalized by the following: (Sample signal/Avg. DMSO)*100. The data were fit using a four-parameter logistic fit.

[4] = system: NCI-H358 (K-Ras G12C); assay: CellTiter-Glo cell viability assay, NCI-H358; assay type: cell-based, human; conditions: 5-day treatment, read-out: H358 Cell Viability assay data (K-Ras G12C, IC50)
How it was run: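 Luminescent CellTiter-Glo read-out on day 5 after compound exposure; signal expressed as percent of mean DMSO control; four-parameter logistic fit gives the value.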

[5] = target: KRAS G12S (Homo sapiens (Human), UniProt P01116+P62937, G12S); assay: Ras-Raf disruption/FRET/MOA assay (BRAF RBD, Cyclophilin A); assay type: biochemical; conditions: read-out: KRAS G12S FRET IC50
How it was run: (§1)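 25 μM tagless Cyclophilin A, 12.5 nM His6-Ras-GMPPNP and 50 nM GST-BRAF RBD in HEPES pH 7.3 buffer with 5 mM MgCl2, with compound (10-point 3-fold series from 30 μM final) for 3 h at 25 °C. Anti-His Eu and anti-GST APC then added for 1.5 h. IC50 from TR-FRET ratio decrease versus DMSO.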

[6] = target: NRAS G12C (Homo sapiens (Human), UniProt P01111+P62937, G12C); assay: as above; assay type: biochemical; conditions: read-out: NRAS G12C FRET data IC50
Chain of NRAS G12C (P01111 whole entry G12C): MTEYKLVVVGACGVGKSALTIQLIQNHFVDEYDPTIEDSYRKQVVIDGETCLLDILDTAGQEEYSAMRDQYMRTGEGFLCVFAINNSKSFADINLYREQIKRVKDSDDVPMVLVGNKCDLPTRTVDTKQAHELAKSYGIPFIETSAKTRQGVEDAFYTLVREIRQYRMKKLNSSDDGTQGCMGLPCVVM
Chain of NRAS G12C (P62937 whole entry): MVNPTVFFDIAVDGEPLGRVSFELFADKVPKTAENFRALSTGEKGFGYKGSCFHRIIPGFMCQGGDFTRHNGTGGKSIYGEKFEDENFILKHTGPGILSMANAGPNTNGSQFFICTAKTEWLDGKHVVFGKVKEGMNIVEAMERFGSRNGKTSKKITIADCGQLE
How it was run: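 Measured: compound-facilitated Cyclophilin A:Ras complex blocking RAF RBD binding. Conditions: 12.5 nM Ras-GMPPNP, 50 nM BRAF RBD, 25 μM CypA, 3 h plus 1.5 h detection. Output: IC50 from TR-FRET ratio.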

[7] = target: KRAS G13D (Homo sapiens (Human), UniProt P01116+P62937, G13D); assay: as above; assay type: biochemical; conditions: read-out: KRAS G13D FRET data IC50
How it was run: as §1

[8] = target: KRAS G13C (Homo sapiens (Human), UniProt P01116+P62937, G13C); assay: as above; assay type: biochemical; conditions: read-out: KRAS G13C FRET IC50
How it was run: as §1

[9] = target: KRAS G12C (Homo sapiens (Human), UniProt P01116+P62937, G12C); assay: as above; assay type: biochemical; conditions: read-out: KRAS G12C FRET IC50
How it was run: as §1

[10] = target: KRAS WT (Homo sapiens (Human), UniProt P01116+P62937); assay: as above; assay type: biochemical; conditions: read-out: KRAS WT FRET data IC50
How it was run: as §1

[11] = target: KRAS G12D (Homo sapiens (Human), UniProt P01116+P62937, G12D); assay: as above; assay type: biochemical; conditions: read-out: KRAS G12D FRET IC50
How it was run: as §1

[12] = target: KRAS G12V (Homo sapiens (Human), UniProt P01116+P62937, G12V); assay: as above; assay type: biochemical; conditions: read-out: KRAS G12V FRET IC50
How it was run: as §1

[13] = Homo sapiens, NCI-H358, 120 h, K-Ras G12C, 5-day treatment

Compound | EC50 ([2]; Homo sapiens) | IC50 [5] | IC50 [8] | IC50 [9] | IC50 [11] | IC50 [12] | IC50 [3, 13] | IC50 ([1]; Homo sapiens, CAPAN-1, 120 h) | other results
CCn1c(-c2cccnc2[C@H](C)OC)c2c3cc(ccc31)-c1cc(O)cc(c1)C[C@H](NC(=O)[C@H](C(C)C)N(C)C(=O)[C@H]1C[C@@H]1O)C(=O)N1CCC[C@H](N1)C(=O)OCC(C)(C)C2 (single isomer, unassigned) [Compound A346] | < 5000 nM | – | – | – | – | – | – | – | IC50 [1]: 100 to 1000 nM; IC50 ([3]; K-Ras G12C, 5-day treatment): 100 to 1000 nM
CCn1c(-c2cnccc2COC)c2c3cc(ccc31)-c1cc(O)cc(c1)C[C@H](NC(=O)[C@H](C(C)C)N(C)C(=O)C1(C)COC1)C(=O)N1CCC[C@H](N1)C(=O)OCC(C)(C)C2 [Compound A49] | – | 1000 to 10000 nM | 1000 to 10000 nM | 100 to 1000 nM | 1000 to 10000 nM | 100 to 1000 nM | – | – | IC50 ([4]; Homo sapiens, NCI-H358, 120 h): > 10000 nM; IC50 [6]: 1000 to 10000 nM; IC50 [7]: 1000 to 10000 nM; IC50 [10]: 100 to 1000 nM
CCn1c(-c2cnccc2COC)c2c3cc(ccc31)-c1cc(O)cc(c1)C[C@H](NC(=O)[C@H](C(C)C)N(C)C(=O)OC1CCOC1)C(=O)N1CCC[C@H](N1)C(=O)OCC(C)(C)C2 (stereo partly drawn) [Compound A50, oxolan-3-yl-N-[(1S)-1-{[(8S,14S)-22-ethyl-4-hydroxy-21-[4-(methoxymethyl)pyridin-3-yl]-18,18-dimethyl-9,15-dioxo-16-oxa-10,22,28-triazapentacyclo [18.5.2.1^2,6.1^10,14.0^23,27]nonacosa-1 (26),2,4,6 (29),20,23 (27),24-heptaen-8-yl]carbamoyl}-2-methylpropyl]-N-methylcarbamate] | – | – | – | – | – | – | – | – | IC50 ([3]; Homo sapiens, NCI-H358, 120 h): 1000 to 10000 nM
CCn1c(-c2cccnc2COC)c2c3cc(ccc31)-c1cc(O)cc(c1)C[C@H](NC(=O)[C@H](C(C)C)N(C)C(C)=O)C(=O)N1CCC[C@H](N1)C(=O)OCC(C)(C)C2 [Compound A55] | < 5000 nM | 1000 to 10000 nM | 100 to 1000 nM | 1000 to 10000 nM | > 10000 nM | 1000 to 10000 nM | 1000 to 10000 nM | – | IC50 [10]: 1000 to 10000 nM
CCn1c(-c2cccnc2COC)c2c3cc(ccc31)-c1cc(O)cc(c1)C[C@H](NC(=O)[C@H](C(C)C)N(C)C(=O)c1ccc(NC(=O)/C=C/CN(C)C)cn1)C(=O)N1CCC[C@H](N1)C(=O)OCC(C)(C)C2 [Compound A67, (2E)-4-(dimethylamino)-N-(6-{[(1S)-1-{[(8S,14S)-22-ethyl-4-hydroxy-21-[2-(methoxymethyl)pyridin-3-yl]-18,18-dimethyl-9,15-dioxo-16-oxa-10,22,28-triazapentacyclo [18.5.2.1^2,6.1^10,14.0^23,27]nonacosa-1 (26),2,4,6 (29),20,23 (27),24-heptaen-8-yl]carbamoyl}-2-methylpropyl](methyl)carbamoyl}pyridin-3-yl) but-2-enamide] | – | 100 to 1000 nM | 10 to 100 nM | 10 to 100 nM | 100 to 1000 nM | 100 to 1000 nM | – | – | IC50 [4]: 100 to 1000 nM; EC50 [2]: < 5000 nM; IC50 ([3]; K-Ras G12C, 5-day treatment): 1000 to 10000 nM
CCn1c(-c2ccccc2CCOC)c2c3cc(ccc31)-c1cc(O)cc(c1)C[C@H](NC(=O)[C@H](C(C)C)N(C)C(=O)CNC(=N)N)C(=O)N1CCC[C@H](N1)C(=O)OCC(C)(C)C2 [Compound A69] | < 5000 nM | 100 to 1000 nM | 100 to 1000 nM | 100 to 1000 nM | 1000 to 10000 nM | 1000 to 10000 nM | > 10000 nM | – | IC50 ([4]; Homo sapiens, NCI-H358, 120 h): 10 to 100 nM; IC50 [7]: 1000 to 10000 nM; IC50 [10]: 1000 to 10000 nM
CCn1c(-c2cnccc2COC)c2c3cc(ccc31)-c1cc(O)cc(c1)C[C@H](NC(=O)[C@H](C(C)C)N(C)C(=O)C1CNC1)C(=O)N1CCC[C@H](N1)C(=O)OCC(C)(C)C2 [Compound A87] | < 5000 nM | 100 to 1000 nM and 10 to 100 nM | 100 to 1000 nM and 10 to 100 nM | 100 to 1000 nM and 10 to 100 nM | 100 to 1000 nM | 100 to 1000 nM and 1000 to 10000 nM | – | > 10000 nM | IC50 ([4]; Homo sapiens, NCI-H358, 120 h): 10 to 100 nM; IC50 [6]: 10 to 100 nM and 100 to 1000 nM; IC50 [7]: 10 to 100 nM and 100 to 1000 nM; IC50 [10]: 10 to 100 nM and 100 to 1000 nM
CCn1c(-c2cccnc2[C@H](C)OC)c2c3cc(ccc31)-c1csc(n1)C[C@H](NC(=O)[C@H](C(C)C)N(C)C(=O)O[C@H]1CCN(C)C1)C(=O)N1CCC[C@H](N1)C(=O)OCC(C)(C)C2 [Compound A173] | – | – | – | – | – | – | 100 to 1000 nM | – | –
CCn1c(-c2cccnc2[C@H](C)OC)c2c3cc(ccc31)-c1cc(O)cc(c1)C[C@H](NC(=O)[C@H](C(C)C)N(C)C(=O)[C@H]1C[C@@H]1C)C(=O)N1CCC[C@H](N1)C(=O)OCC(C)(C)C2 [Compound A287] | – | – | – | – | – | – | 100 to 1000 nM | 100 to 1000 nM | –
CCn1c(-c2cccnc2[C@H](C)OC)c2c3cc(ccc31)-c1cc(O)cc(c1)C[C@H](NC(=O)[C@H](C(C)C)N(C)C(=O)[C@H]1C[C@@H]1O)C(=O)N1CCC[C@H](N1)C(=O)OCC(C)(C)C2 [Compound A323] | – | 10 to 100 nM | – | < 10 nM | – | 10 to 100 nM | 100 to 1000 nM | 100 to 1000 nM | IC50 [6]: < 10 nM; IC50 [7]: 10 to 100 nM
CCn1c(-c2cccnc2[C@H](C)OC)c2c3cc(ccc31)-c1csc(n1)C[C@H](NC(=O)[C@H](C(C)C)N(C)C(=O)N1CC[C@@H](O)C1)C(=O)N1CCC[C@H](N1)C(=O)OCC(C)(C)C2 [Compound A376] | < 5000 nM | – | – | – | – | – | 10 to 100 nM | 10 to 100 nM | –
CCn1c(-c2cccnc2[C@H](C)OC)c2c3cc(ccc31)-c1csc(n1)C[C@H](NC(=O)[C@H](C(C)C)N(C)C(=O)N1CC([C@@H](C)N(C)C)C1)C(=O)N1CCC[C@H](N1)C(=O)OCC(C)(C)C2 [Compound A458] | < 5000 nM | – | – | – | – | – | 10 to 100 nM | 10 to 100 nM | –
CCn1c(-c2cccnc2[C@H](C)OC)c2c3cc(ccc31)-c1csc(n1)C[C@H](NC(=O)[C@H](C(C)C)N(C)C(=O)N1CCC[C@@H](N(C)C)C1)C(=O)N1CCC[C@H](N1)C(=O)OCC(C)(C)C2 [Compound A531] | < 5000 nM | – | – | – | – | – | 10 to 100 nM | 10 to 100 nM | –
CCn1c(-c2cccnc2[C@H](C)OC)c2c3cc(ccc31)-c1csc(n1)C[C@H](NC(=O)[C@H](C(C)C)N(C)C(=O)N(C)[C@@H]1CCCN(C)C1)C(=O)N1CCC[C@H](N1)C(=O)OCC(C)(C)C2 [Compound A587] | < 5000 nM | – | – | – | – | – | 10 to 100 nM | – | –
CCn1c(-c2cccnc2[C@H](C)OC)c2c3cc(ccc31)-c1csc(n1)C[C@H](NC(=O)[C@H](C(C)C)N(C)C(=O)N1CCN(C(=O)[C@H]3CCCN3C)CC1)C(=O)N1CCC[C@H](N1)C(=O)OCC(C)(C)C2 [Compound A595] | < 5000 nM | – | – | – | – | – | 10 to 100 nM | 100 to 1000 nM | –
(2S)—N-[(8S,14S)-22-ethyl-4-hydroxy-21-[4-(methoxymethyl)pyridin-3-yl]-18,18-dimethyl-9,15-dioxo-16-oxa-10,22,28-triazapentacyclo [18.5.2.1^2,6.1^10,14.0^23,27]nonacosa-1 (26),2,4,6 (29),20,23 (27),24-heptaen-8-yl]-2-{1-[(3S)-1-{2-[(3R)-3-hydroxypyrrolidin-1-yl]acetyl}pyrrolidin-3-yl]-N-methylformamido}-3-methylbutanamide [Compound A6] | – | 10 to 100 nM | 100 to 1000 nM | 10 to 100 nM | 100 to 1000 nM | 100 to 1000 nM | – | – | IC50 [4]: 100 to 1000 nM; EC50 [2]: < 5000 nM; IC50 ([3]; K-Ras G12C, 5-day treatment): 1000 to 10000 nM
